Key:
Experiment in all cases: relative viability (nuclei count vs DMSO), 5 days (fraction); higher = more cells survive
[1] = compound: C#Cc1cccc(Nc2ncnc3cc(OCCOC)c(OCCOC)cc23)c1 [Erlotinib] + CC(C)C[C@H](NC(=O)[C@H](Cc1ccccc1)NC(=O)c1cnccn1)B(O)O [Bortezomib] (partner 0.002 µM)
Summary of the method: (§1)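 One day after seeding in 1536-well plates, lung cancer cell lines were dosed by pin tool. Dosing was either single-drug or a fixed anchor-drug dose plus five library-drug doses (not always all listed) in √10 steps. After 5 days, nuclei were stained in one fix-and-stain step and counted on 4× images, and relative viability is the nuclei count of treated wells over that of vehicle wells, given as the median of duplicate plates.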

[2] = compound: C#Cc1cccc(Nc2ncnc3cc(OCCOC)c(OCCOC)cc23)c1 [Erlotinib] + O=C(CCCCCCC(=O)Nc1ccccc1)NO [Vorinostat] (partner 1 µM)
Summary of the method: as §1

[3] = compound: C#Cc1cccc(Nc2ncnc3cc(OCCOC)c(OCCOC)cc23)c1 [Erlotinib] + O=C(c1cc(Cc2n[nH]c(=O)c3ccccc23)ccc1F)N1CCN(C(=O)C2CC2)CC1 [Olaparib] (partner 8 µM)
Summary of the method: as §1

[4] = compound: O=C(Nc1c[nH]nc1-c1nc2ccc(CN3CCOCC3)cc2[nH]1)NC1CC1 [AT9283] + COc1cccc2cc(-c3nc([C@H]4CC[C@H](C(=O)O)CC4)n4ncnc(N)c34)[nH]c12 [OSI-027] (partner 0.5 µM)
Summary of the method: as §1

[5] = compound: O=C(Nc1c[nH]nc1-c1nc2ccc(CN3CCOCC3)cc2[nH]1)NC1CC1 [AT9283] + Nc1ncn([C@H]2C[C@H](O)[C@@H](CO)O2)c(=O)n1 [Decitabine] (partner 2 µM)
Summary of the method: as §1

| Cell Line | relative viability ([1]; first compound 0.02 µM) | relative viability ([1]; first compound 0.2 µM) | relative viability ([1]; first compound 0.6325 µM) | relative viability ([1]; first compound 2 µM) | relative viability ([2]; first compound 0.02 µM) | relative viability ([2]; first compound 0.2 µM) | relative viability ([2]; first compound 0.6325 µM) | relative viability ([2]; first compound 2 µM) | relative viability ([3]; first compound 0.02 µM) | relative viability ([3]; first compound 0.2 µM) | relative viability ([3]; first compound 0.6325 µM) | relative viability ([3]; first compound 2 µM) | relative viability ([4]; first compound 0.003 µM) | relative viability ([4]; first compound 0.03 µM) | relative viability ([4]; first compound 0.09487 µM) | relative viability ([4]; first compound 0.3 µM) | relative viability ([5]; first compound 0.003 µM) | relative viability ([5]; first compound 0.03 µM) | relative viability ([5]; first compound 0.09487 µM) | relative viability ([5]; first compound 0.3 µM) |
| --- | --- | --- | --- | --- | --- | --- | --- | --- | --- | --- | --- | --- | --- | --- | --- | --- | --- | --- | --- | --- |
| NCI-H1915 | 0.982 | 0.989 | 1.05 | 0.992 | 0.536 | 0.529 | 0.508 | 0.485 | 0.25 | 0.264 | 0.25 | 0.222 | 0.619 | 0.619 | 0.239 | 0.196 | 0.247 | 0.26 | 0.209 | 0.168 |
| LU99A | 1.34 | 1.1 | 1.24 | 0.899 | 0.505 | 0.507 | 0.49 | 0.468 | 0.309 | 0.29 | 0.252 | 0.208 | 0.297 | 0.233 | 0.166 | 0.155 | 0.868 | 0.404 | 0.195 | 0.226 |
| LCLC-103H | 1.16 | 1.2 | 1.1 | 0.992 | 0.837 | 0.732 | 0.796 | 0.685 | 0.745 | 0.75 | – | 0.707 | 0.396 | 0.451 | 0.415 | 0.276 | 0.755 | 0.774 | 0.444 | 0.35 |
| RERF-LC-KJ | 1.04 | 1.01 | 0.854 | 0.762 | 0.716 | 0.605 | 0.624 | 0.453 | 1 | 0.86 | 0.994 | 0.852 | 0.609 | 0.544 | 0.308 | 0.279 | 0.746 | 0.477 | 0.282 | 0.224 |
| NCI-H1755 | 1.06 | 1.01 | 0.957 | 0.9 | 0.827 | 0.762 | 0.772 | 0.716 | 0.942 | 0.892 | 0.888 | 0.818 | 0.697 | 0.72 | 0.396 | 0.537 | 0.712 | 0.803 | 0.67 | 0.527 |
| NCI-H596 | 1.01 | 0.993 | 1.09 | 0.93 | 0.683 | 0.636 | 0.606 | 0.583 | 0.776 | 0.635 | 0.674 | 0.586 | 0.704 | 0.779 | 0.665 | 0.476 | 1.07 | 0.946 | 0.934 | 0.783 |
| NCI-H1734 | 1.1 | 0.955 | 1.17 | 0.961 | 0.954 | – | 0.938 | 0.81 | 0.61 | 0.588 | 0.583 | 0.545 | 0.634 | 0.331 | 0.237 | 0.201 | 0.54 | 0.324 | 0.261 | 0.254 |
| NCI-H661 | 0.887 | 0.555 | 0.881 | 0.646 | 0.834 | 0.758 | 0.775 | 0.646 | 0.801 | 0.79 | 0.74 | 0.615 | 0.767 | 0.529 | 0.313 | 0.344 | 0.579 | 0.422 | 0.406 | 0.272 |
| NCI-H2009 | 1.06 | 1.03 | 1.19 | 1.01 | 0.758 | 0.713 | 0.775 | 0.667 | 0.783 | 0.73 | 0.792 | 0.627 | 0.652 | 0.511 | 0.182 | 0.101 | 0.378 | 0.358 | 0.225 | 0.222 |
| LC-2-ad | 1.02 | 1.02 | – | 0.868 | 0.731 | 0.794 | 0.75 | 0.589 | 0.709 | 0.785 | 0.692 | 0.625 | 0.766 | 0.476 | 0.249 | 0.229 | 0.872 | 0.685 | 0.471 | 0.255 |
| NCI-H2085 | 1.04 | 0.979 | 0.889 | 0.766 | 0.78 | 0.649 | 0.724 | 0.535 | 0.754 | 0.768 | 0.655 | 0.619 | 0.896 | 0.731 | 0.553 | 0.321 | 0.615 | 0.452 | 0.419 | 0.378 |
| NCI-H650 | 0.749 | 0.88 | 0.958 | – | 0.487 | 0.496 | 0.59 | 0.449 | 0.419 | 0.389 | – | 0.34 | 0.519 | 0.528 | 0.379 | 0.169 | 0.319 | 0.333 | 0.229 | 0.162 |
| EMC-BAC-2 | 1.09 | 0.972 | 1.05 | – | – | 0.543 | 0.524 | 0.446 | 0.569 | 0.547 | 0.492 | 0.46 | 0.369 | 0.325 | 0.197 | 0.149 | 0.992 | 0.496 | 0.338 | 0.321 |
| NCI-H322M | 1.21 | 1.17 | 1.12 | 0.57 | 0.832 | 0.716 | 0.688 | 0.546 | 0.776 | 0.67 | 0.631 | 0.551 | 0.396 | 0.306 | 0.472 | 0.464 | 0.775 | 0.531 | 0.588 | 0.462 |
| NCI-H727 | 0.785 | 0.844 | 1 | 0.701 | 1.29 | 1.24 | 1.03 | 1.01 | 0.696 | 0.947 | 0.607 | 0.721 | 0.657 | 0.483 | 0.487 | 0.324 | 0.697 | 0.642 | 0.754 | 0.517 |
